pIC50: −log10 of the molar value.
target: T1, Lysyl oxidase homolog 2 (Homo sapiens, UniProt Q9Y4K0); test: Inhibition of human LOXL2 expressed in CHO cells incubated for 2 hrs followed by 1,5-Diaminopentane addition by Amplex Red fluorescence based assay; assay type: cell-based
T1 sequence (Q9Y4K0 whole entry): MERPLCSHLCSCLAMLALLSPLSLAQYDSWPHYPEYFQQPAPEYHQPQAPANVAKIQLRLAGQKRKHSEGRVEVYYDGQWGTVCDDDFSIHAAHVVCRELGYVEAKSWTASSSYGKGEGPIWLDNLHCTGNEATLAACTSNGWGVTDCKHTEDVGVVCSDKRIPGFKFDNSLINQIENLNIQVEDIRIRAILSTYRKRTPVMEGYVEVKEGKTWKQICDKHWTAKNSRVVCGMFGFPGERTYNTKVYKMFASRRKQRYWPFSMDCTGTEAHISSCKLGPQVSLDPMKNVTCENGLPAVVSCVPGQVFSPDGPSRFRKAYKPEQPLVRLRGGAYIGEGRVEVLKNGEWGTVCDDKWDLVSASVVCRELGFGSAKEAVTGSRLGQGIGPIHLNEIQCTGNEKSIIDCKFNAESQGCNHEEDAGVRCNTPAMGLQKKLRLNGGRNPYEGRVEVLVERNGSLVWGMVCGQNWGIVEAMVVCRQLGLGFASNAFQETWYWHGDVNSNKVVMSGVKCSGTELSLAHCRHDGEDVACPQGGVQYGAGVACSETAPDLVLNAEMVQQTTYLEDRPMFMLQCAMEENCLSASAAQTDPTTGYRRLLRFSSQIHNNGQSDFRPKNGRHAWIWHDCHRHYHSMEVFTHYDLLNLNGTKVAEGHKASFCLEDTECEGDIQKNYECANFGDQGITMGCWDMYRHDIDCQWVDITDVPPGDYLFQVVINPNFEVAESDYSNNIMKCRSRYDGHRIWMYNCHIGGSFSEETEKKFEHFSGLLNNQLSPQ

`NCCc1nc(-c2ccccc2)cs1` and `NCCc1nc(-c2ccncc2)cs1` fall in the same range of pIC50: 6.00 to 6.52 for the first, 6.00 to 6.52 for the second.

`NCc1nc2ccccc2s1` and `NCCc1nc2ccccc2s1` cannot be ordered by pIC50: over 6.52 for the first, over 6.52 for the second.

First: NCc1cc2ccccc2s1
Second: NCCc1cc2ccccc2s1
The pIC50 of the first is higher: 6.00 to 6.52 for the first, under 6.00 for the second. The first is the more potent here.

Going from `NCc1nc2ccccc2[nH]1` to `NCCc1nc2ccccc2[nH]1`, the pIC50 falls from over 6.52 to under 6.00. The first is the more potent here.

First: NCc1cc2cc(Br)ccc2o1
Second: NCc1cc2ccccc2o1
The pIC50 of the first is lower: under 6.00 for the first, 6.00 to 6.52 for the second. The second is the more potent here.

`NCCc1nc2ccc(F)cc2[nH]1` and `NCCc1nc2cc(Cl)ccc2[nH]1` cannot be ordered by pIC50: under 6.00 for the first, under 6.00 for the second.

`NCc1cnccn1` and `NCc1cccnn1` cannot be ordered by pIC50: over 6.52 for the first, over 6.52 for the second.

`NCc1cc2ccc(-c3cnc4ccccc4c3)cc2c(=O)[nH]1` and `NCc1cc2cc(-c3cnc4ccccc4c3)ccc2[nH]1` cannot be ordered by pIC50: over 6.52 for the first, over 6.52 for the second.

`NCCc1nc2cccc(Cl)c2o1` and `NCCc1nc2cc(Cl)ccc2o1` cannot be ordered by pIC50: over 6.52 for the first, over 6.52 for the second.

First: NCCc1cc2ccccc2o1
Second: NCCc1nc2ccccc2o1
The pIC50 of the first is lower: under 6.00 for the first, 6.00 to 6.52 for the second.

Compared with `NCc1cc(Oc2cccc(C(=O)Nc3ccccc3)c2)n2nccc2n1`, `NCc1cc(Oc2cccc(C(=O)Nc3ccccc3)c2)n2ccnc2n1` is higher in pIC50: 6.00 to 6.52 for the first, over 6.52 for the second.

First: NCCc1nc2cc(Cl)ccc2s1
Second: NCc1nc2cc(Cl)ccc2s1
The pIC50 of the first is higher: over 6.52 for the first, 6.00 to 6.52 for the second. The first is the more potent here.

`NCc1cc2ccc(-c3cncc(C(=O)Nc4ccccc4)c3)cc2s1` and `NCc1cc2ccc(-c3cncc(C(=O)NCc4ccccc4)c3)cc2s1` cannot be ordered by pIC50: over 6.52 for the first, over 6.52 for the second.

First: NCCc1cc2ccccc2[nH]1
Second: NCc1cc2ccccc2[nH]1 [2-INDOLYLMETHANAMINE]
The pIC50 of the first is lower: under 6.00 for the first, 6.00 to 6.52 for the second. The second is the more potent here.

`Cc1cc(Br)cc2cc(CN)oc12` and `NCc1cc2ccc(Br)cc2s1` cannot be ordered by pIC50: over 6.52 for the first, over 6.52 for the second.

`CC(C)(C)c1ccc2sc(CN)cc2c1` and `NCc1cc2cc(F)ccc2s1` cannot be ordered by pIC50: over 6.52 for the first, over 6.52 for the second.

`NCc1cc2ccc(Br)cc2c(=O)[nH]1` and `C#Cc1ccc2cc(CN)[nH]c(=O)c2c1` cannot be ordered by pIC50: over 6.52 for the first, over 6.52 for the second.

Compared with `NCc1cc2cc(-c3cccnc3)ccc2[nH]1`, `NCc1cc2cc(-c3cncc(O)c3)ccc2[nH]1` is lower in pIC50: over 6.52 for the first, 6.00 to 6.52 for the second.

Compared with `NCc1nc2cc(Cl)ccc2[nH]1`, `NCc1cc2cc(Cl)ccc2[nH]1` is lower in pIC50: over 6.52 for the first, 6.00 to 6.52 for the second.

`COc1ncccc1-c1ccc2[nH]c(CN)cc2c1` and `COc1ccc(-c2ccc3[nH]c(CN)cc3c2)cn1` fall in the same range of pIC50: 6.00 to 6.52 for the first, 6.00 to 6.52 for the second.

Going from `NCCc1nc2cc(F)ccc2s1` to `NCc1cc2cc(F)ccc2[nH]1`, the pIC50 falls from over 6.52 to under 6.00. The first is the more potent here.

`NCc1cc2ccc(-c3ccc(C(=O)Nc4ccccc4)nc3)cc2s1` and `NCc1cc2ccc(-c3cccnc3)cc2s1` cannot be ordered by pIC50: over 6.52 for the first, over 6.52 for the second.

`COc1ccc2[nH]c(CN)cc2c1` and `Cc1ccc2[nH]c(CN)cc2c1` fall in the same range of pIC50: 6.00 to 6.52 for the first, 6.00 to 6.52 for the second.

Compared with `Cn1cc(-c2ccc3[nH]c(CN)cc3c2)cn1`, `Cn1cnc2ccc(-c3ccc4[nH]c(CN)cc4c3)cc21` is higher in pIC50: 6.00 to 6.52 for the first, over 6.52 for the second.

`Cc1c(CN)oc2ccc(F)cc12` and `Cc1c(F)ccc2cc(CN)[nH]c12` cannot be ordered by pIC50: under 6.00 for the first, under 6.00 for the second.

Compared with `NCc1ccnc(Oc2cccc(C(=O)Nc3ccccc3)c2)n1`, `NCc1cnnc(Oc2cccc(C(=O)Nc3ccccc3)c2)c1` is higher in pIC50: 6.00 to 6.52 for the first, over 6.52 for the second. The second is the more potent here.

`NCc1cc2ccncc2[nH]1` and `NCc1cc2ncccc2[nH]1` cannot be ordered by pIC50: over 6.52 for the first, over 6.52 for the second.

First: NCc1cc2c(cn1)ncn2-c1cccc(C(=O)Nc2ccccc2)c1
Second: NCc1cc2c(cn1)ncn2Cc1cccc(C(=O)Nc2ccccc2)c1
The pIC50 of the first is higher: over 6.52 for the first, under 6.00 for the second.

Compared with `NCCc1nn2cnnc2s1`, `NCc1ccnnc1` is higher in pIC50: under 6.00 for the first, 6.00 to 6.52 for the second.

`NCc1cc2cc(C3CC3)ccc2s1` and `NCc1cc2cc(Br)ccc2s1` cannot be ordered by pIC50: over 6.52 for the first, over 6.52 for the second.

First: NCc1cc2cc(-c3ccc(OCc4ccccc4)nc3)ccc2[nH]1
Second: NCc1cc2cc(-c3ccc(Oc4ccccc4)nc3)ccc2[nH]1
The pIC50 of the first is lower: 6.00 to 6.52 for the first, over 6.52 for the second. The second is the more potent here.

First: NCc1nc2cc3ccccc3cc2[nH]1
Second: NCc1cc2ccccc2c(=O)[nH]1
The pIC50 of the first is higher: over 6.52 for the first, 6.00 to 6.52 for the second. The first is the more potent here.

`NCc1cc2ccc(C#Cc3ccccc3)cc2c(=O)[nH]1` and `NCc1cc2ccc(-c3ccccc3)cc2c(=O)[nH]1` cannot be ordered by pIC50: over 6.52 for the first, over 6.52 for the second.

`Cn1c(CN)cc2ccccc21` and `NCC(O)c1cc2ccccc2s1` (racemic) cannot be ordered by pIC50: under 6.00 for the first, under 6.00 for the second.

First: NCC1=CC(=O)c2ccccc2C1=O
Second: NCc1cc(=O)[nH]c2ccccc12
The pIC50 of the first is higher: over 6.52 for the first, under 6.00 for the second. The first is the more potent here.

`NCc1cc(Nc2cccc(C(=O)Nc3ccccc3)c2)n2ccnc2n1` and `NCc1cc2cc(-c3ccc4nccn4c3)ccc2[nH]1` cannot be ordered by pIC50: over 6.52 for the first, over 6.52 for the second.

First: NCc1nc2ccccc2o1
Second: CC(C)(C)c1ccc2oc(CN)nc2c1
The pIC50 of the first is lower: under 6.00 for the first, over 6.52 for the second.

Going from `NCc1cc2cc(-c3cccnc3)ccc2s1` to `NCc1ccc2ncccc2c1`, the pIC50 falls from over 6.52 to under 6.00.

`NCc1ccc2[nH]cnc2c1` and `NCc1ccc2[nH]ccc2n1` cannot be ordered by pIC50: under 6.00 for the first, under 6.00 for the second.

`NCc1sc2ccccc2c1Cl` and `CC(CN)c1nc2ccccc2s1` (racemic) fall in the same range of pIC50: 6.00 to 6.52 for the first, 6.00 to 6.52 for the second.

`NCc1cc(=O)c2cc(Br)ccc2s1` and `NCc1cc2cc(Br)ccc2[nH]1` cannot be ordered by pIC50: over 6.52 for the first, over 6.52 for the second.

`NCc1nc2cc(Br)cnc2[nH]1` and `NCc1nc2ncccc2[nH]1` cannot be ordered by pIC50: over 6.52 for the first, over 6.52 for the second.

Compared with `NCc1cc(O)n2nccc2n1`, `NCc1cc2occc2s1` is lower in pIC50: 6.00 to 6.52 for the first, under 6.00 for the second.

`NCc1cc2ccc(-n3cc(Br)cn3)cc2c(=O)[nH]1` and `COc1ccc2cc(CN)[nH]c(=O)c2c1` cannot be ordered by pIC50: over 6.52 for the first, over 6.52 for the second.

`NCc1cc2cc(I)ccc2[nH]1` and `NCc1cc2cc(-c3ccc(F)cc3)ccc2[nH]1` cannot be ordered by pIC50: over 6.52 for the first, over 6.52 for the second.

`NCc1cc2cc(-c3cncc4ccccc34)ccc2[nH]1` and `COC(=O)c1cncc(-c2ccc3[nH]c(CN)cc3c2)c1` cannot be ordered by pIC50: over 6.52 for the first, over 6.52 for the second.

With `NCc1cc2ccc(-c3ccc(F)cc3)cc2c(=O)[nH]1` the pIC50 was over 6.52.
